In patent US20120178786A9, “Use of tetramic acid derivatives for controlling pests by drenching, drip application, or dip application” (priority 2006, published 2012):

Tests used:
[1] = system: foliar nematode Aphelenchoides fragariae; test: Example 16: dip treatment of lily bulbs, number of infested plants; type: in vivo; conditions: control 8
Procedure: The bulbs of 15 lily plants cv. “L.A. Glow” (growth stage 14/16) are dipped, in four replications, into an active substance solution containing the active substance I-4 (cis isomer, formulation: 240 SC) at the concentrations stated and subsequently planted into boxes 40×60 cm in size. The bulbs came from a field which was homogeneously infested with the foliar nematode Aphelenchoides fragariae. The number of infested plants is determined by examining leaves under the microscope for foliar nematodes 92 days after the dip treatment.

[2] = system: MYZUPE; test: Example 1: irrigation experiment in pots, Abbott efficacy; type: in vivo, Myzus persicae
Procedure: In an irrigation experiment carried out in 0.5-1-pots, Chinese cabbage, Savoy cabbage, bell peppers and broad beans which had been potted three days earlier are watered, in two replications, with 50 ml of active substance solution containing the active substance I-4 (cis isomer) at the application rates stated. The greenhouse temperature is 20° C. Infection with MYZUPE is accomplished seven and fourteen days after the application of the active substance. The test is evaluated in each case seven days after each infection by determining the activity with the aid of Abbott's formula.

[3] = system: Tetranychus urticae (TETRUR); test: Example 4: drench of aubergine plants, Abbott efficacy; type: in vivo; conditions: 240 SC
Procedure: (§1) Aubergine plants (25 days after sowing) in 0.5-1-pots are drenched, in three replications, with 50 ml of active substance solution containing the active substance I-4 (cis isomer, formulation: 240 SC) at the application rate stated. The greenhouse temperature is 20° C. Infection with Aphis gossypii (APHIGO), Myzus persicae (MYZUPE) and Tetranychus urticae (TETRUR) is accomplished in each case seven and fourteen days after the application of the active substance. The test is evaluated in each case seven days after each infection by determining the activity with the aid of Abbott's formula.

[4] = system: Myzus persicae (MYZUPE); test: as above; type: in vivo; conditions: 240 SC
Procedure: as §1

[5] = system: Aphis gossypii (APHIGO); test: as above; type: in vivo; conditions: infection 7 d after application, 240 SC
Procedure: as §1

[6] = system: APHIGO; test: Example 2: drench of cucumber plants on rock wool, Abbott efficacy; type: in vivo, Aphis gossypii; conditions: 240 SC
Procedure: Cucumber plants cv. “Delikatess” which have been grown on rock wool are drenched, in six replications, one week after transplanting with in each case 100 ml active substance solution containing the active substance I-4 (cis isomer, formulation: 240 SC) at the application rate stated. The greenhouse temperature is 20° C. Infection with APHIGO is accomplished in each case seven and fourteen days after the application of the active substance. The test is evaluated in each case seven days after each infection by determining the activity with the aid of Abbott's formula.

[7] = system: citrus mealybug Pseudococcus citri (PSECCI); test: Example 12: drench of Coleus plants, Abbott efficacy; type: in vivo; conditions: 240 SC
Procedure: Coleus plants (approximate height 29 cm) in 6-inch pots which have been infected approximately 4 weeks before the treatment with citrus mealybug Pseudococcus citri (PSECCI) are drenched, in three replications, with an active substance solution containing the active substance I-4 (cis isomer, formulation: 240 SC) and, by way of comparison, with the commercial standard imidacloprid (240 SC) at the application rate stated. The greenhouse temperature is 29° C. The test is evaluated 7, 14, 21 and 28 days after the treatment by determining the efficacy with the aid of Abbott's formula.

[8] = system: Trialeurodes vaporarium (TRIAVA); test: Example 9: drench of courgette plots, Abbott efficacy; type: in vivo; conditions: four treatments of 10 mg active substance/plant at 10-day intervals, I-4 240 SC, imidacloprid 200 SL
Procedure: Plots approximately 12 m^2 in size and containing courgette plants (47 days after sowing) are drenched, in three replications, against Trialeurodes vaporarium (TRIAVA) with 100 ml of an active substance solution per plant, containing the active substance I-4 (cis isomer, formulation: 240 SC) and, by way of comparison, with the standard imidacloprid (200 SL) at the application rate stated. Four applications are effected at 10-day intervals. The test is evaluated 21, 31, 38 and 45 days after the 1st treatment by determining the efficacy with the aid of Abbott's formula.

[9] = system: Liriomyza sp.; test: Example 14: drench of bell pepper plots, kill rate of larvae in the leaves; type: in vivo; conditions: 40 + 10 + 10 mg/plant, 240 SC
Procedure: Plots approximately 2×5 m in size which contain bell pepper plants are treated, in three replications, against Liriomyza sp. The active substance example (I-4) cis isomer (240 SC) is drenched in an active substance solution at the application rate stated. The water application rate is 700 l/ha. Three treatments are carried out at intervals of 7 and 14 days. The test is evaluated in each case 7 days after the 2nd and 3rd treatment and 14 days after the 3rd treatment by scoring the kill rate of the larvae in the leaves.

[10] = infection 7 d after application, 10 mg active substance/plant
[11] = infection 7 d after application, 20 mg active substance/plant
[12] = infection 14 d after application, 10 mg active substance/plant
[13] = infection 14 d after application, 20 mg active substance/plant

CCOC(=O)OC1=C(c2cc(C)ccc2C)C(=O)N[C@]12CC[C@@H](OC)CC2 [Example I-4]
Infested plants ([1]; comparison: foliar treatment with 150 g/ha, 15 lily plants): 6
Infested plants ([1]; lily bulbs dipped, a.i. 0.075 %, 15 plants, 92 days after dip treatment): 0
Infested plants ([1]; lily bulbs dipped, a.i. 0.15 %, 15 plants, 92 days after dip treatment): 0
Abbott efficacy (%) against MYZUPE ([2]; Bell pepper, infection 7 d after application, 10 mg active substance/plant): 100%
Abbott efficacy (%) against MYZUPE ([2]; Bell pepper, infection 7 d after application, 20 mg active substance/plant): 100%
Abbott efficacy (%) against MYZUPE ([2]; Bell pepper, infection 14 d after application, 10 mg active substance/plant): 100%
Abbott efficacy (%) against MYZUPE ([2]; Bell pepper, infection 14 d after application, 20 mg active substance/plant): 100%
Abbott efficacy (%) against MYZUPE ([2]; Broad bean, infection 7 d after application, 10 mg active substance/plant): 83%
Abbott efficacy (%) against MYZUPE ([2]; Broad bean, infection 7 d after application, 20 mg active substance/plant): 100%
Abbott efficacy (%) against MYZUPE ([2]; Broad bean, infection 14 d after application, 10 mg active substance/plant): 23%
Abbott efficacy (%) against MYZUPE ([2]; Broad bean, infection 14 d after application, 20 mg active substance/plant): 99%
Abbott efficacy (%) against MYZUPE ([2]; Chinese cabbage, infection 7 d after application, 10 mg active substance/plant): 100%
Abbott efficacy (%) against MYZUPE ([2]; Chinese cabbage, infection 7 d after application, 20 mg active substance/plant): 100%
Abbott efficacy (%) against MYZUPE ([2]; Chinese cabbage, infection 14 d after application, 10 mg active substance/plant): 99%
Abbott efficacy (%) against MYZUPE ([2]; Chinese cabbage, infection 14 d after application, 20 mg active substance/plant): 99%
Abbott efficacy (%) against MYZUPE ([2]; Savoy cabbage, infection 7 d after application, 10 mg active substance/plant): 100%
Abbott efficacy (%) against MYZUPE ([2]; Savoy cabbage, infection 7 d after application, 20 mg active substance/plant): 100%
Abbott efficacy (%) against MYZUPE ([2]; Savoy cabbage, infection 14 d after application, 10 mg active substance/plant): 99%
Abbott efficacy (%) against MYZUPE ([2]; Savoy cabbage, infection 14 d after application, 20 mg active substance/plant): 99%
Abbott efficacy (%) against TETRUR [3, 10]: 96%
Abbott efficacy (%) against TETRUR [3, 11]: 100%
Abbott efficacy (%) against TETRUR [3, 12]: 73%
Abbott efficacy (%) against TETRUR [3, 13]: 77%
Abbott efficacy (%) against MYZUPE [4, 10]: 100%
Abbott efficacy (%) against MYZUPE [4, 11]: 100%
Abbott efficacy (%) against MYZUPE [4, 12]: 100%
Abbott efficacy (%) against MYZUPE [4, 13]: 100%
Abbott efficacy (%) against APHIGO ([5]; 10 mg active substance/plant): 99%
Abbott efficacy (%) against APHIGO ([5]; 20 mg active substance/plant): 100%
Abbott efficacy (%) against APHIGO [6, 10]: 100%
Abbott efficacy (%) against APHIGO [6, 11]: 100%
Abbott efficacy (%) against APHIGO ([6]; infection 7 d after application, 40 mg active substance/plant): 100%
Abbott efficacy (%) against APHIGO [6, 12]: 91%
Abbott efficacy (%) against APHIGO [6, 13]: 96%
Abbott efficacy (%) against APHIGO ([6]; infection 14 d after application, 40 mg active substance/plant): 99%
Abbott efficacy (%) against PSECCI ([7]; 7 d after treatment, 24 mg active substance/1 potting compost): 63%
Abbott efficacy (%) against PSECCI ([7]; 14 d after treatment, 24 mg active substance/1 potting compost): 91%
Abbott efficacy (%) against PSECCI ([7]; 21 d after treatment, 24 mg active substance/1 potting compost): 94%
Abbott efficacy (%) against PSECCI ([7]; 28 d after treatment, 24 mg active substance/1 potting compost): 93%
Abbott efficacy (%) against TRIAVA ([8]; 21 d after 1st treatment): 57.5%
Abbott efficacy (%) against TRIAVA ([8]; 31 d after 1st treatment): 85.9%
Abbott efficacy (%) against TRIAVA ([8]; 38 d after 1st treatment): 88.5%
Abbott efficacy (%) against TRIAVA ([8]; 45 d after 1st treatment): 85.7%
Efficacy (% Abbott) against Liriomyza sp. ([9]; 7 d after 2nd treatment): 66.7 % Abbott
Efficacy (% Abbott) against Liriomyza sp. ([9]; 7 d after 3rd treatment): 100 % Abbott
Efficacy (% Abbott) against Liriomyza sp. ([9]; 14 d after 3rd treatment): 81.8 % Abbott

O=[N+]([O-])NC1=NCCN1Cc1ccc(Cl)nc1 [Imidacloprid, imidacloprid, reference compound]
Abbott efficacy (%) against PSECCI ([7]; 7 d after treatment, 12 mg active substance/1 potting compost): 30%
Abbott efficacy (%) against PSECCI ([7]; 14 d after treatment, 12 mg active substance/1 potting compost): 35%
Abbott efficacy (%) against PSECCI ([7]; 21 d after treatment, 12 mg active substance/1 potting compost): 19%
Abbott efficacy (%) against PSECCI ([7]; 28 d after treatment, 12 mg active substance/1 potting compost): 16%
Abbott efficacy (%) against TRIAVA ([8]; 21 d after 1st treatment): 88.1%
Abbott efficacy (%) against TRIAVA ([8]; 31 d after 1st treatment): 74.0%
Abbott efficacy (%) against TRIAVA ([8]; 38 d after 1st treatment): 77.2%
Abbott efficacy (%) against TRIAVA ([8]; 45 d after 1st treatment): 63.7%
